Measurements published in patent US20250243180A1, “TARGETED PROTEIN DEGRADATION” (Monte Rosa Therapeutics AG, priority 2023, published 2025).
Like-named read-outs stand apart in the source and are kept apart here.

Assays:
CRBN-DDB1 = CRBN-DDB1 (Homo sapiens (Human), UniProt Q96SW2); test: Compound binding to CRBN by HTRF assay
Description: Compound activity was monitored in a Homogenous Time-Resolved Fluorescence (HTRF) assay using 1-[5-({2-[2-(2-{[2-(2,6-dioxopiperidin-3-yl)-1,3-dioxo-2,3-dihydro-1H-isoindol-4-yl]oxy}acetamido)ethoxy]ethyl}carbamoyl)pentyl]-3,3-dimethyl-2-[(1E,3E)-5-[(2E)-1,3,3-trimethyl-5-sulfo-2,3-dihydro-1H-indol-2-ylidene]penta-1,3-dien-1-yl]-3H-indol-1-ium-5-sulfonate as a fluorescent probe. Biochemical assays were conducted in Greiner white 384 well HiBase plates (Cat. No 784075-25) in 20 μL total volume. A one pot detection solution of CRBN-DDB1 (2.5 nM), Anti-His Terbium Cryptate Gold (1×, PerkinElmer Cat. #: 61HI2TLB), and Cy5-Thalidomide (100 nM, Tenova Cat.: T52461) was prepared in 20 mM HEPES, 20 mM NaCl, 0.2 mM TCEP, 0.2 mM EDTA, and 0.005% Tween20 was dispensed to each assay plate. Compounds were stored in dry, ambient temperatures at 10 mM. An 11-point, 1:3 dilution series was prepared from 10 mM stock concentrations in Echo-compatible LDV plates. 10 nL of each compound dilution series was dispensed into assays wells using an Echo 650 (Labcyte Inc. USA). 20 nL of 10 mM Lenalidomide was transferred into the active-control wells for the assay and 20 nL of DMSO was transferred into the neutral-control wells. The assay was then allowed to incubate for 30 min at ambient temperature after transferring compound. Plate measurements were taken on a Pherastar FSX (BMG Labtech, Germany) using the HTRF Red filter (Ex. 337 nm, em1: 620 nm, em2: 665 nm) (Flashes: 50, Integration time: 60-400 us, Z-height: 10 mm, Ratio-multiplier: 10,000). The HTRF signal was then subsequently normalized to the neutral and active controls. Analysis and EC50 values were derived using KNIME analytics (KNIME Zurich) transformation and fitting within Collaborative Drug Discovery (Collaborative Drug Discovery USA). Ki was derived from the geometric mean of the EC50 values using the Cheng-Prustoff transformation.

NEK7 = NEK7 (Homo sapiens (Human), UniProt Q8TDX7+Q96SW2); test: NEK7 NanoBiT degradation assay in Cal51 NEK7 NanoBiT cell line; assay type: cell-based; settings: Cal51 NEK7 NanoBiT cells, 24 hours; for Dmax: CAL-51
NEK7, sequence (Q8TDX7 whole entry): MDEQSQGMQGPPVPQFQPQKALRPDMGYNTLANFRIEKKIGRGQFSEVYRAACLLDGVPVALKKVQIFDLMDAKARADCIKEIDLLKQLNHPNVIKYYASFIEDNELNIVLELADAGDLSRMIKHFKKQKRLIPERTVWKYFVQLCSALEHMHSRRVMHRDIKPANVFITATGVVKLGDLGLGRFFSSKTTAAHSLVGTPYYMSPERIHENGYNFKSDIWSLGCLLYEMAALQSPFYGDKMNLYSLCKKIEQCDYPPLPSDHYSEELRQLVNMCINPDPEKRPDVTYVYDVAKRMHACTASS
NEK7, sequence (Q96SW2 whole entry): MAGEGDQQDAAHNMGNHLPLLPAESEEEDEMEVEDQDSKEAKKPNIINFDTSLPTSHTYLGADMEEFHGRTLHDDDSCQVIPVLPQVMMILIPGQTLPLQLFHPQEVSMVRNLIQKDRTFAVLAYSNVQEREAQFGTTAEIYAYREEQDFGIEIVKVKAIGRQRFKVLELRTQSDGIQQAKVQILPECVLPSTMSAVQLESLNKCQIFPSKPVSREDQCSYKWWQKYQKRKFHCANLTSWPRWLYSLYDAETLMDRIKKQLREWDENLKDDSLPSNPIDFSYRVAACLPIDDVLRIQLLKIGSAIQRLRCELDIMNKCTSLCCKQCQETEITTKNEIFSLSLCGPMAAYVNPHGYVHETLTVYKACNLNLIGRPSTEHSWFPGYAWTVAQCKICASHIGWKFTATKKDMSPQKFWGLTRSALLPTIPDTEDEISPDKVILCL
NEK7, sequence (Q16531 2-1140 partner): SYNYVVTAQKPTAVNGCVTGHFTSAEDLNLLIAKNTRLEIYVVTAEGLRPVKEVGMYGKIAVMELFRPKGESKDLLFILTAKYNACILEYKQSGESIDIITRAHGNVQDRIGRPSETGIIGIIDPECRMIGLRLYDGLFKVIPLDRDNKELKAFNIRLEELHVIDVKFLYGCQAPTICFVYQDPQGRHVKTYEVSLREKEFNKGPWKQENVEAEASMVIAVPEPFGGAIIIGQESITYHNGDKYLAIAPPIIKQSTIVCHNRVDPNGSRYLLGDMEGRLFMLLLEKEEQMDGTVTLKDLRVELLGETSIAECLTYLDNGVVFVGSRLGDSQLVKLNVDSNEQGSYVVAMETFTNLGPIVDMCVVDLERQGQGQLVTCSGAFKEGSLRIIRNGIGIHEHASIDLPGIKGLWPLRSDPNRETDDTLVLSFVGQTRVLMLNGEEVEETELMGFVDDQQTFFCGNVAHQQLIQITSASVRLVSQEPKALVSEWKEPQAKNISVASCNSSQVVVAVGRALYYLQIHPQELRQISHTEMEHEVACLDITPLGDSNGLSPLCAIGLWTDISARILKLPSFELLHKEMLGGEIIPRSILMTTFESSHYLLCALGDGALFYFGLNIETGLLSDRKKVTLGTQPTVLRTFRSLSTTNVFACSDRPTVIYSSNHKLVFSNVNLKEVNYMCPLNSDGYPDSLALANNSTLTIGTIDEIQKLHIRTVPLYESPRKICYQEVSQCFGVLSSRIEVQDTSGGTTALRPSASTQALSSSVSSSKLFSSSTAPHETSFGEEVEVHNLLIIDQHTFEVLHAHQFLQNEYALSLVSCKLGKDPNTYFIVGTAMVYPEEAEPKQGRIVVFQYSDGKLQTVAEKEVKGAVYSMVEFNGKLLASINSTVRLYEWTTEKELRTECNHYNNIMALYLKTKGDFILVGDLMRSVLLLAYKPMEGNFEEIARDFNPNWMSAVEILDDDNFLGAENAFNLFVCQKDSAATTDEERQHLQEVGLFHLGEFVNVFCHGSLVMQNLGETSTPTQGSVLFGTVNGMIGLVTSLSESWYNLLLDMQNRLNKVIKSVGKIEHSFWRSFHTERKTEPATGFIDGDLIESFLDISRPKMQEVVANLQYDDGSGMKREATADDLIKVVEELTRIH
Description: Cal51 NEK7 NanoBiT cell line was generated via CRISPR Knock-In of the HiBiT tag in NEK7 gene and stable infection with a lentivirus carrying LgBiT protein. The cell line was generated in house. For the experiment, cells were plated in 384-well white flat bottom plates (Corning, 3570BC) at 2500 cells per well using Multiflo (BioTek/Agilent) and in 25 μl volume in DMEM experimental medium: DMEM (DMEM, high glucose, HEPES, no phenol red (ThermoFisher Scientific, 21063029) supplemented with 10% FBS (Corning, 35-075-CV), 1% Penicillin/Streptomycin ((ThermoFisher Scientific, 15140-122), and 1% Endurazine (Nano-Glo Endurazine Live Cell Substrate (Promega, N2571)). Cells were incubated for 16 hours at 37° C., 5% CO2 before compound addition. For dose response determination, 2.5 nL of a compound at different concentrations (stock compound concentration range: 10 mM to 0.5 μM, final concentration range inside cell plate: 1 μM to 0.05 nM) were dispensed into the plate using an Echo® 650 liquid handling device (Backman Coulter/Labcyte). Cells were incubated at 37° C., 5% CO2 for 24 hours and then signal was read on a Pherastar FSX using “LUM plus” optic module with 4095 gain and measurement interval time 0.2 seconds.
Analysis was performed in Genedata Screener (Genedata, Basel, CH). Luminescence response (R) was calculated by the formula: response=100*(S−N)/(P−N) where S is the signal of the well, N and P the mean negative and positive control values respectively of the same plate. The luminescence response was then fitted in Genedata using a 4-parameter antagonist logistic fit (hill slope unconstrained, EC50>0, top/bottom unconstrained).

[1] = NEK7 degradation, read-out: NanoBiT Dmax
[2] = NEK7 degradation, read-out: NanoBiT DC50

CRBN-DDB1, sequence (Q96SW2 whole entry): as the sequence (Q96SW2 whole entry) above
CRBN-DDB1, sequence (Q16531 whole entry partner): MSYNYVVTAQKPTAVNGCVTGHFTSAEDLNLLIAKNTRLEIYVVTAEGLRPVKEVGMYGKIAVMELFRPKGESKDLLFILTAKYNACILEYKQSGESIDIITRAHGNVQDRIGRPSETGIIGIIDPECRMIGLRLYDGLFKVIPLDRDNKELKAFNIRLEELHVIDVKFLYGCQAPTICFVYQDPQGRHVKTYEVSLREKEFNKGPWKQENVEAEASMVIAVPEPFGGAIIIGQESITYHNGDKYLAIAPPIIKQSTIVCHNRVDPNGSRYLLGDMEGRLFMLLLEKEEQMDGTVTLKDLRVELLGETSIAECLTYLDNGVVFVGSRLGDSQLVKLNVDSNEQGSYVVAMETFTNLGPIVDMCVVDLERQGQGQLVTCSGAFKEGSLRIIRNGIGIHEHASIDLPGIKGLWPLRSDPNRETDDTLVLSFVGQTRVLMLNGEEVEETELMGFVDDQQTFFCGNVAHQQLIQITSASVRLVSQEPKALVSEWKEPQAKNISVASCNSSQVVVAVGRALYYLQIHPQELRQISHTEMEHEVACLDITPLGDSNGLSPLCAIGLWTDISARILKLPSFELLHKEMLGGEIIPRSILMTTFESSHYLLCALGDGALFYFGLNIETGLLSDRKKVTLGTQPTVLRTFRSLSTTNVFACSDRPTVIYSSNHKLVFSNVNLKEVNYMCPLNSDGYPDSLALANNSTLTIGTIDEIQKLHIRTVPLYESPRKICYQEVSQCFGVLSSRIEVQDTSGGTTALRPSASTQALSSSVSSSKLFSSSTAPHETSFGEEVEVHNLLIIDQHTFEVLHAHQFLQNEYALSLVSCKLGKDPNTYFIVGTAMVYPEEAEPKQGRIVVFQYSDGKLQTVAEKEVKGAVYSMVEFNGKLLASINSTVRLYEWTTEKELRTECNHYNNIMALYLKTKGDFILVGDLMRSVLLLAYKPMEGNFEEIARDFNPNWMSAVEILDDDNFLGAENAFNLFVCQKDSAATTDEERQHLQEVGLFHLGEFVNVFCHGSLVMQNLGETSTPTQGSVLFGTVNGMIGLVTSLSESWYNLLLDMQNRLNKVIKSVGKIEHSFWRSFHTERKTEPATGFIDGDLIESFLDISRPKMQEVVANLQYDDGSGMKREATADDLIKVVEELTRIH

| SMILES | EC50 (CRBN-DDB1) | EC50 (CRBN-DDB1; HTRF class, Cereblon binding) | Dmax (NEK7; read-out: NEK7 NanoBiT Dmax) | Dmax (NEK7; [1]) | DC50 (NEK7; read-out: NEK7 NanoBiT DC50) | DC50 (NEK7; [2]) |
| --- | --- | --- | --- | --- | --- | --- |
| Cn1cccc(C(C)(C)C(=O)NCc2cc(Cl)c(C3CCC(=O)NC3=O)c(Cl)c2)c1=O (stereo not drawn) [Compound 148, N-(3,5-dichloro-4-(2,6-dioxopiperidin-3-yl)benzyl)-2-methyl-2-(1-methyl-2-oxo-1,2-dihydropyridin-3-yl)propanamide] | 150 nM | 100 to 1000 nM | 58% | 50 to 75% | 176 nM | 100 to 1000 nM |
| Cc1nnc(C(C)(C)C(=O)NCc2cc(Cl)c([C@H]3CCC(=O)NC3=O)c(Cl)c2)o1 (single isomer, unassigned) [Compound 225] | 6560 nM | > 1000 nM | 49% | ≤ 50% | 1000 nM | > 1000 nM |
| Cc1nnc(C2(C(=O)NCc3cc(Cl)c(C4CCC(=O)NC4=O)c(Cl)c3)CCC2)o1 (stereo not drawn) [Compound 226, N-(3,5-dichloro-4-(2,6-dioxopiperidin-3-yl)benzyl)-1-(5-methyl-1,3,4-oxadiazol-2-yl)-cyclobutane-1-carboxamide] | 130 nM | 100 to 1000 nM | 54% | 50 to 75% | 556 nM | 100 to 1000 nM |
| CC(C)(C(=O)NCc1cc(Cl)c(C2CCC(=O)NC2=O)c(Cl)c1)c1cnc(OC(F)(F)F)cn1 (stereo not drawn) [Compound 259] | 90 nM | ≤ 100 nM | 91% | > 75% | 6 nM | ≤ 100 nM |
| CC(C)(C(=O)NCc1cc(Cl)c(C2CCC(=O)NC2=O)c(Cl)c1)c1ccc2[nH]cnc2c1 (stereo not drawn) [Compound 69] | 60 nM | ≤ 100 nM | 97% | > 75% | 1 nM | ≤ 100 nM |
| CC(C)(C(=O)NCc1cc(F)c(C2CCC(=O)NC2=O)c(Cl)c1)c1cnc(OC(F)(F)F)cn1 (stereo not drawn) [Compound 264] | 130 nM | 100 to 1000 nM | 68% | 50 to 75% | 100 nM | ≤ 100 nM |
| CC(C)(C(=O)NCc1cc(Cl)c(C2CCC(=O)NC2=O)c(Cl)c1)c1ccc2cnncc2c1 (stereo not drawn) [Compound 35, N-(3,5-dichloro-4-(2,6-dioxopiperidin-3-yl)benzyl)-2-methyl-2-(phthalazin-6-yl)propanamide] | 130 nM | 100 to 1000 nM | 77% | > 75% | 19 nM | ≤ 100 nM |
| CC(C)(C(=O)NCc1cc(Cl)c(C2CCC(=O)NC2=O)c(Cl)c1)c1cnc(C(F)F)cn1 (stereo not drawn) [Compound 196] | 310 nM | 100 to 1000 nM | 90% | > 75% | 9 nM | ≤ 100 nM |
| COCc1nc(C(C)(C)C(=O)NCc2cc(Cl)c(C3CCC(=O)NC3=O)c(Cl)c2)ncc1C (stereo not drawn) [Compound 233, N-(3,5-dichloro-4-(2,6-dioxopiperidin-3-yl)benzyl)-2-(4-(methoxymethyl)-5-methylpyrimidin-2-yl)-2-methylpropanamide] | 190 nM | 100 to 1000 nM | 74% | 50 to 75% | 29 nM | ≤ 100 nM |
| CC(C)(C(=O)NCc1cc(Cl)c(C2CCC(=O)NC2=O)c(Cl)c1)c1cc(F)ccn1 (stereo not drawn) [Compound 149] | 130 nM | 100 to 1000 nM | 85% | > 75% | 12 nM | ≤ 100 nM |
| CC(C)(C(=O)NCc1cc(Cl)c(C2CCC(=O)NC2=O)c(Cl)c1)c1ccnc(C(F)F)n1 (stereo not drawn) [Compound 156, N-(3,5-dichloro-4-(2,6-dioxopiperidin-3-yl)benzyl)-2-(2-(difluoromethyl)pyrimidin-4-yl)-2-methylpropanamide] | 330 nM | 100 to 1000 nM | 54% | 50 to 75% | 435 nM | 100 to 1000 nM |
| O=C1CCC(c2c(Cl)cc(CNC(=O)C3(c4ccc(F)cc4)CCOC3)cc2Cl)C(=O)N1 (stereo not drawn) [Compound 141] | 20 nM | ≤ 100 nM | 91% | > 75% | 6 nM | ≤ 100 nM |
| O=C1CCC(c2c(Cl)cc(CNC(=O)C3(c4ccc(F)cc4)CCOCC3)cc2Cl)C(=O)N1 (stereo not drawn) [Compound 142] | 50 nM | ≤ 100 nM | 94% | > 75% | 3 nM | ≤ 100 nM |
| Cc1ccc(C(C)(C)C(=O)NCc2cc(Cl)c(C3CCC(=O)NC3=O)c(Cl)c2)nn1 (stereo not drawn) [Compound 12] | 170 nM | 100 to 1000 nM | 91% | > 75% | 8 nM | ≤ 100 nM |
| CC(C)(C(=O)NCc1cc(F)c(C2CCC(=O)NC2=O)c(Cl)c1)c1ccc(OC(F)(F)F)nn1 (stereo not drawn) [Compound 272] | 230 nM | 100 to 1000 nM | 57% | 50 to 75% | 312 nM | 100 to 1000 nM |
| CC(C)(C(=O)NCc1cc(Cl)c(C2CCC(=O)NC2=O)c(Cl)c1)c1nc2ccccc2o1 (stereo not drawn) [Compound 167] | 90 nM | ≤ 100 nM | 96% | > 75% | 1 nM | ≤ 100 nM |
| CC(C)(C(=O)NCc1cc(Cl)c(C2CCC(=O)NC2=O)c(Cl)c1)c1ncc(CC(F)F)cn1 (stereo not drawn) [Compound 186] | 90 nM | ≤ 100 nM | 65% | 50 to 75% | 90 nM | ≤ 100 nM |
| CC(C)(C(=O)NCc1cc(Cl)c(C2CCC(=O)NC2=O)c(Cl)c1)c1ccccn1 (stereo not drawn) [Compound 20] | 70 nM | ≤ 100 nM | 86% | > 75% | 13 nM | ≤ 100 nM |
